Like-named read-outs stand apart in the source and are kept apart here.
What was measured:
[1] = system: uptake of 5-HT by brain synaptosomes; assay: [3H]5-HT reuptake by rat brain synaptosomes; assay type: biochemical; conditions: at the concentration of 10 μmol/L
[2] = system: uptake of DA by brain synaptosomes; assay: [3H]DA reuptake by rat brain synaptosomes; assay type: biochemical; conditions: for inhibition activity on the reuptake of DA (in words): at the concentration of 10 μmol/L; for inhibition effect on the uptake of DA: rat corpus striatum synaptosomes, control drugs and tested substances all 0.1 mmol/L (method and b297 say 10 μmol/L), inhibition rate
[3] = system: uptake of NA by brain synaptosomes; assay: [3H]NA reuptake by rat brain synaptosomes; assay type: biochemical; conditions: at the concentration of 10 μmol/L
[4] = system: histidine auxotrophic mutant strains of Salmonella TA97, TA98, TA100 and TA102; assay type: cell-based
Text: 4. Bacterial reverse mutation test for VII-10.
Bacterium: histidine auxotrophic mutant strains of Salmonella TA97, TA98, TA100 and TA102
Experimental method: the method reported in the literature: Maron D M et al: (1983) Mutay Res. 113, 173-216.
Results: The experiment included two parts: −S9 and +S9. […] The other dosages had no bacteriostatic effect for all the strains, with a well growing background. […] Ames test result was negative.

[5] = Forced Swimming Test in Learned Helplessness Experiment; assay type: in vivo
Text: 2. Results of in vivo antidepression of compound VII-10

mice = assay: Acute toxicity, LD50 single-fed; assay type: in vivo; conditions: statistics of Bliss
Method: Initial screening was performed by the method reported in “Modern Pharmacological Experiments Mothods” edited by Zhang Juntian.

SMILES | inhibition activity on the reuptake of 5-HT (in words) [1] | inhibition activity on the reuptake of DA (in words) [2] | inhibition effect on the uptake of DA [2] | inhibition activity on the reuptake of NA (in words) [3] | further results
Cl.OC(CCN1CCN(CC=Cc2ccccc2)CC1)c1csc2ccccc12 (stereo not drawn) [VII-11, N^1-cinnamyl-N^4-[3-hydroxy-3-(benzo[b]thiophene-3-yl)]propylpiperazine hydrochloride] | stronger inhibition activity | stronger inhibition activity | 97.9 ± 1.1 | stronger inhibition activity | 
CC(C(O)c1csc2ccccc12)N1CCN(Cc2ccccc2)CC1 (single isomer, unassigned) [VII-4, N^1-benzyl-N^4-[1-methyl-2-hydroxy-2-(benzo[b]thiophene-3-yl)]ethylpiperazine (threo isomer)] |  |  | 14.5 ± 10.0 |  | 
Cl.OC(CCN1CCN(C(c2ccccc2)c2ccccc2)CC1)c1csc2ccccc12 (stereo not drawn) [VII-14, N^1-benzhydryl-N^4-[3-hydroxy-3-(benzo[b]thiophene-3-yl)]propylpiperazine hydrochloride] | stronger inhibition activity | stronger inhibition activity | 87.3 ± 4.3 | stronger inhibition activity | 
Cl.OC(CCN1CCN(CCOC(c2ccc(F)cc2)c2ccc(F)cc2)CC1)c1csc2ccccc12 (stereo not drawn) [VII-15] | stronger inhibition activity | stronger inhibition activity | 102.2 ± 1.3 ^ | stronger inhibition activity | 
CC(c1ccccc1)N1CCN(CCC(O)c2csc3ccccc23)CC1.Cl (stereo not drawn) [VII-12, N^1-α-phenethyl-N^4-[3-hydroxy-3-(benzo[b]thiophene-3-yl)]propylpiperazine hydrochloride] | stronger inhibition activity | stronger inhibition activity | 98.0 ± 1.5 | stronger inhibition activity | 
Cl.OC(CCN1CCN(Cc2ccccc2)CC1)c1csc2ccccc12 (stereo not drawn) [VII-10, N^1-benzyl-N^4-[3-hydroxy-3-(benzo[b]thiophene-3-yl)]propylpiperazine hydrochloride] | stronger inhibition activity | stronger inhibition activity | 78.0 ± 8.0 | stronger inhibition activity | Ames test result ([4]; TA97, TA98, TA100, TA102, −S9 and +S9): negative; dose showing bacteriostatic effect ([4]; TA97 in +S9 test system): 5000 μg per culture dish; dose showing bacteriostatic effect ([4]; TA98 in −S9 test system): 5000 μg per culture dish; number of reverse mutation colonies ([4]; all dosages tested, both −S9 and +S9 test systems): no significant increase; effect on immobility time in swimming (in words) [5]: significantly reduce the immobility time; immobility time ([5]; dosage 6.35 mg/kg): 90.7 ± 46.3 s; immobility time ([5]; dosage 12.7 mg/kg): 87.5 ± 35.7 s; immobility time ([5]; dosage 25.4 mg/kg, hydrochloride): 84 ± 48.9 s; LD50 (mice): 1100 mg/kg
CC(C(O)c1csc2ccccc12)N1CCN(Cc2ccccc2)CC1 (single isomer, unassigned) [VII-5, N^1-benzyl-N^4-[1-methyl-2-hydroxy-2-(benzo[b]thiophene-3-yl)]ethylpiperazine (erythro isomer)] |  |  | 11.4 ± 11.5 |  | 
COc1ccc(C(CN(C)C)C2(O)CCCCC2)cc1 (stereo not drawn) [Venlafaxine, reference compound] |  |  | 48.6 ± 4.1 ^ |  | immobility time ([5]; dosage 4.56 mg/kg): 57.1 ± 37.8 s; immobility time ([5]; dosage 9.12 mg/kg): 77.4 ± 47.2 s; immobility time ([5]; dosage 18.24 mg/kg): 80.8 ± 46.8 s
Clc1ccc([C@]23CNC[C@H]2C3)cc1Cl [DOV 21947, reference compound] |  |  | 104.1 ± 4.2 ^ |  | 
